Broadly, the fraction unbound is free concentration divided by total concentration. As a reminder, the inhibition is the drop in the measured response relative to a control, in per cent.

The source of these data is ChEMBL document CHEMBL4152373 (Bioorg Med Chem, 2018).

Some results are limits rather than exact numbers.

Data set [1] in a line: Fraction unbound in mouse plasma at 5 uM after 4 hrs by equilibrium dialysis method. On the technique in general: In equilibrium dialysis only unbound substance equilibrates across the membrane.
The target of data set [2] is T1, Free fatty acid receptor 4 (Homo sapiens) (UniProt Q5NUL3).
T1 sequence (whole entry): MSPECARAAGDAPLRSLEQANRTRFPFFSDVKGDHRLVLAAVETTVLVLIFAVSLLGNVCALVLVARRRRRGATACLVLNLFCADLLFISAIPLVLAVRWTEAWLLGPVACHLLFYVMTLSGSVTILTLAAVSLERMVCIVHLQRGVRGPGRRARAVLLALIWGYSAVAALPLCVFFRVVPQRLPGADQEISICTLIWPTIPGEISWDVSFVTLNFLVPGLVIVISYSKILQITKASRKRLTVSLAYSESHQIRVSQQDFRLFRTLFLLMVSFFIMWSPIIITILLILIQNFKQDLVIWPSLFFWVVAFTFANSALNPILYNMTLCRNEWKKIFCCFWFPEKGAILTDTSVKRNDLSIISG
Put plainly: Antagonist activity at FFA4R (unknown origin) at 10 uM by aequorin based assay relative to control. Format: functional.

The target in data set [3] is Hydroxycarboxylic acid receptor 2 (Homo sapiens) (UniProt Q8TDS4). Put plainly: Agonist activity at GPR109a (unknown origin) at 10 uM by aequorin based assay relative to control. Format: functional.
Chain of Hydroxycarboxylic acid receptor 2 (Homo sapiens) (Q8TDS4 whole entry): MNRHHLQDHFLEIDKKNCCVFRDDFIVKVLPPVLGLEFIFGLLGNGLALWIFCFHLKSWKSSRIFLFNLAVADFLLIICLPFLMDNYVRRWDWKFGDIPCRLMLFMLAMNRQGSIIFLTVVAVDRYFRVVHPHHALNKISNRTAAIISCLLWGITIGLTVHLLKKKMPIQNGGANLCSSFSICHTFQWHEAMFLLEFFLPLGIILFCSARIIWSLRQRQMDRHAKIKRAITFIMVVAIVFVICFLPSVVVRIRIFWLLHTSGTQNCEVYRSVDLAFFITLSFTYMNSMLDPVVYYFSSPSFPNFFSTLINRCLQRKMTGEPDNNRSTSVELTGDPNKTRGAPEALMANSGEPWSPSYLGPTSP
For data set [4], the target named is Hydroxycarboxylic acid receptor 3 (Homo sapiens) (UniProt P49019). Put plainly: Antagonist activity at GPR109b (unknown origin) at 10 uM by aequorin based assay relative to control. Format: functional.
Chain of Hydroxycarboxylic acid receptor 3 (Homo sapiens) (P49019 whole entry): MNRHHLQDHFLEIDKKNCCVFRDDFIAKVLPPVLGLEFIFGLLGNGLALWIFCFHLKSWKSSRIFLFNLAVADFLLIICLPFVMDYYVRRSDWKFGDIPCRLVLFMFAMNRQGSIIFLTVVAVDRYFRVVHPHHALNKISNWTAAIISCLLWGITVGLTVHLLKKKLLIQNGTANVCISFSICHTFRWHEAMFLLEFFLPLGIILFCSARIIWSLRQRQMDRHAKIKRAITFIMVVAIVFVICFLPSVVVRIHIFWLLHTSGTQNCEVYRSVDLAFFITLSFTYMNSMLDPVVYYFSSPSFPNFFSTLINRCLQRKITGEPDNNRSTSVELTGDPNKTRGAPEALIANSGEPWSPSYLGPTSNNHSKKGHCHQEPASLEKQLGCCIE
In data set [5] the target is T2, Glucocorticoid receptor (Homo sapiens) (UniProt P04150).
T2 sequence (whole entry): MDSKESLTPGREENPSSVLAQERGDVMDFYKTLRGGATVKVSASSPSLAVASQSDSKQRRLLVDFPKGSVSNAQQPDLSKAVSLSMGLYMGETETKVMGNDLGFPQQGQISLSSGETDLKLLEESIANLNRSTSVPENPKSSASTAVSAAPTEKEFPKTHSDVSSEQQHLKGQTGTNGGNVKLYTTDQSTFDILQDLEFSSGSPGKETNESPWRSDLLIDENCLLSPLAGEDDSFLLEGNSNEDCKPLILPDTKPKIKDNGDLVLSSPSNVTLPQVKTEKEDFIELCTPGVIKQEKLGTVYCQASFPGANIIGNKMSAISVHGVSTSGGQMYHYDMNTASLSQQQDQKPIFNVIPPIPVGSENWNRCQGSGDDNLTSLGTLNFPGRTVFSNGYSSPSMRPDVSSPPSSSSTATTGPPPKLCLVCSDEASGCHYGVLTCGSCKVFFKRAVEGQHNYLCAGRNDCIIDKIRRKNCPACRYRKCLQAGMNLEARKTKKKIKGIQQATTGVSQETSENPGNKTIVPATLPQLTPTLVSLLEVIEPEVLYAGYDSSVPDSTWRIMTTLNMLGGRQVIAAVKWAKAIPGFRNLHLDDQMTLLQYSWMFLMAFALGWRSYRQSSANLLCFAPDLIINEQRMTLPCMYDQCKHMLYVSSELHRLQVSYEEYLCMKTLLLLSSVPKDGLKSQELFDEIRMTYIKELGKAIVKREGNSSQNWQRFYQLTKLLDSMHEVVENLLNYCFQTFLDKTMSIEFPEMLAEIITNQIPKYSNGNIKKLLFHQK
Particulars: 10 uM.
Description: Antagonist activity at GCR (unknown origin) at 10 uM by cAMP accumulation based assay relative to control

Take `COc1ccc(-c2ccccc2-c2csc(N(C(=O)[C@@H](CC(=O)O)CC3CCCC3)C3CC3)n2)cn1`: the fraction unbound at 4 h, 5 µM in data set [1] came to 0.0023. Further, the inhibition in data set [2] was 16%; in data set [4], 22%; in data set [5], less than 10%. In data set [3], this molecule had an Activity of less than 10%.
